This assay concerns the target T1, tyrosine kinase of EGFR (TK-EGFR) (Homo sapiens, UniProt P00533).
T1 construct: tyrosine kinase of EGFR (TK-EGFR), recombinant protein from E. coli
Briefly: ADP-Glo kinase assay with recombinant TK-EGFR, […] ATP. Type of assay: biochemical. A general note: ADP-Glo turns the ADP formed in a reaction into a luminescent signal.

T1 sequence (P00533 25-1210): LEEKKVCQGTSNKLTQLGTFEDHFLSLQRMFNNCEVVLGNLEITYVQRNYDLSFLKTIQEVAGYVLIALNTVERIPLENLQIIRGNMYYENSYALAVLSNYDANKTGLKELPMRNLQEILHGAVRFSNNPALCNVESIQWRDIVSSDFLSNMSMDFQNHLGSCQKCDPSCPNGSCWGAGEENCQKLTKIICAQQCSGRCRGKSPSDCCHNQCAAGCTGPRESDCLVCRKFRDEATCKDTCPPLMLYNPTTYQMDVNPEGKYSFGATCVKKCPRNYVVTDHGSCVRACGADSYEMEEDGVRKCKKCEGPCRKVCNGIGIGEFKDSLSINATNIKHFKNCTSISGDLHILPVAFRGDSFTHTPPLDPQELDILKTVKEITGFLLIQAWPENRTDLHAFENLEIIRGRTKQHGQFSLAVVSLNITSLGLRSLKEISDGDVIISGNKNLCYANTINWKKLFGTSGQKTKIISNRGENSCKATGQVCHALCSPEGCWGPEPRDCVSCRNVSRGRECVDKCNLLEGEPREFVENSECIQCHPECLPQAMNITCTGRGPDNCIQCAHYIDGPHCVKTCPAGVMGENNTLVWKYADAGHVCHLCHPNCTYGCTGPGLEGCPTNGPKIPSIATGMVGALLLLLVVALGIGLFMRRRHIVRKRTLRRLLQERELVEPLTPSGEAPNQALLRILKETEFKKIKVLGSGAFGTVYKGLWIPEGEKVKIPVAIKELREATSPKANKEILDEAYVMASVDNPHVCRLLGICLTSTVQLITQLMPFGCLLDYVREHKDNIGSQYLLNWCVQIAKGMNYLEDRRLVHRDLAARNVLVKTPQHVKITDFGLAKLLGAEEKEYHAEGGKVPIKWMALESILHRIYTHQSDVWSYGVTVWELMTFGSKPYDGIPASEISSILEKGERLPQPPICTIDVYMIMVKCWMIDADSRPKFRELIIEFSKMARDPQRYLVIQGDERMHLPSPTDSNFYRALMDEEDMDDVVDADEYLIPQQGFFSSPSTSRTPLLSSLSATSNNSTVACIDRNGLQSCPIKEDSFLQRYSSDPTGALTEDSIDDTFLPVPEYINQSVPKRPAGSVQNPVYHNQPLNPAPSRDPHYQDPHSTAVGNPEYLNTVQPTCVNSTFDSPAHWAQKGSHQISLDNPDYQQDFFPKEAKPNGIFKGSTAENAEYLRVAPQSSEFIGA

As usually defined, the IC50 is the concentration needed to halve the response being measured. Take `NS(=O)(=O)c1cccc(Nc2nccc(-c3ccccc3)n2)c1` [13f, 3-[(4-phenylpyrimidin-2-yl)amino] benzene-1-sulfonamide]: the IC50 was 22.7 nM.

Values taken from publication PMC8190356, “The Effect of the EGFR - Targeting Compound 3-[(4-Phenylpyrimidin-2-yl) Amino] Benzene-1-Sulfonamide (13f) against Cholangiocarcinoma Cell Lines” (Asian Pacific Journal of Cancer Prevention : APJCP, 2021).
